The record followed here is patent US20240316051A1, “A PHARMACEUTICAL COMBINATION AND USE THEREOF” (Ascentage Pharma (Suzhou) Co., Ltd., priority 2021, published 2024).

Read-outs that look alike come from different tables or passages of the source.

Assay [1] has as its system human B cell lymphoma cell KARPAS422. Briefly: Cell proliferation (WST-8), KARPAS422, 7 days. The note with it: KARPAS-422, 168 h, WST-8, Table 4A, read-out: Karpas Cell line. The format is cell-based. As for the experimental part: Analysis of Cell Proliferation:
To assess the effect of PRC2 inhibition on cell growth, cells were seeded in 96-well cell culture plates at a density of 2 000-3 000 cells/well in 200 μL of culture medium, and treated with serially diluted compounds for 7 days at 37° C. in an atmosphere of 5% CO2. Cell growth was evaluated by a […] WST-8 assay (Dojindo Molecular Technologies) using a Tecan Infinite M1000 multimode microplate reader (Tecan, Morrisville, NC). The WST-8 reagent was added to the plate, incubated for 1-4 h, and read at 450 nm. The readings were normalized to the DMSO-treated cells, and the IC50 was calculated by nonlinear regression analysis using GraphPad Prism 6 software
(Formazan colour is commonly taken as a measure of viable cells.)

The next assay has as its target T1, EED (1-441)-His protein (Homo sapiens, UniProt O75530).
T1 construct: 20 nM EED (1-441)-His protein
The assay is described as follows: EED-H3K27Me3 peptide competition binding assay by AlphaScreen. Particulars: read-out: Alpha screen. The procedure, abridged: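 Readout was AlphaScreen emission at 615 nm after 680 nm excitation, with 10 μg/ml final each of streptavidin donor and nickel chelate acceptor beads, 1 h at RT in the dark. Beforehand, compound met the His-tagged EED(1-441) for 15 min and then biotinylated H3K27Me3(19-33) peptide for 30 min; both were added as 20 nM solutions, buffer 25 mM HEPES pH 8, Tween-20, BSA. Percent activity left was fitted to give IC50.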

T1 sequence (O75530 whole entry): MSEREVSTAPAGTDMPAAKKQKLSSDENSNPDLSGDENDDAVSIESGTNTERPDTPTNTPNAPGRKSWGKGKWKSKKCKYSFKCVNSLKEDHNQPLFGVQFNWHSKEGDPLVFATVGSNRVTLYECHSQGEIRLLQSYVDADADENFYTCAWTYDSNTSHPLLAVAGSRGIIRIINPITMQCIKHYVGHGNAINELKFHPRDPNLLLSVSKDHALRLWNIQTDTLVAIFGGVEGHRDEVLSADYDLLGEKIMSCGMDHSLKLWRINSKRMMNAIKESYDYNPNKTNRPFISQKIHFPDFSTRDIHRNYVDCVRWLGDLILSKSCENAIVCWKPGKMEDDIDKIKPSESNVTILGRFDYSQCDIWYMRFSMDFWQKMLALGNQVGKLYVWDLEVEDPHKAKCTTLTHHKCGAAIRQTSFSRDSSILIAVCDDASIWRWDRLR

On to `CN1CCC(N2Cc3cc(F)ccc3-c3cnc(NCc4c(F)ccc5c4CCO5)n4cnc(c34)C2=O)CC1` [Compound 75, 7-fluoro-12-(((5-fluoro-2,3-dihydrobenzofuran-4-yl)methyl)amino)-4-(1-methylpiperidin-4-yl)-4,5-dihydro-3H-2,4,11,12a-tetraazabenzo[4,5] cycloocta[1,2,3-cd]inden-3-one], for which the IC50 was 11.1 nM in assay [1] and 1.72 nM on EED (1-441)-His protein (Table 4A). For the compound `O=C1c2ncn3c(NCc4c(F)ccc5c4CCO5)ncc(c23)-c2ccc(F)cc2CN1CC(F)F` [Compound 80, 4-(2,2-difluoroethyl)-7-fluoro-12-(((5-fluoro-2,3-dihydrobenzofuran-4-yl)methyl)amino)-4,5-dihydro-3H-2,4,11,12a-tetraazabenzo[4,5]cycloocta[1,2,3-cd]inden-3-one], the results for the IC50 (in assay [1]; at EED (1-441)-His protein (Table 4A)) were 2.42 nM and 1.61 nM, respectively. With `O=C1c2ncn3c(NCc4c(F)ccc5c4CCO5)ncc(c23)-c2ccc(F)cc2CN1C1CC1` [Compound 64, 4-cyclopropyl-7-fluoro-12-(((5-fluoro-2,3-dihydrobenzofuran-4-yl)methyl)amino)-4,5-dihydro-3H-2,4,11,12a-tetraazabenzo[4,5]cycloocta[1,2,3-cd] inden-3-one], the IC50 in assay [1] was determined as 2.44 nM. Consider `O=C1c2ncn3c(NCc4c(F)ccc5c4CCO5)ncc(c23)-c2ccc(F)cc2CN1CCF` [Compound 79, 7-fluoro-12-(((5-fluoro-2,3-dihydrobenzofuran-4-yl)methyl)amino)-4-(2-fluoroethyl)-4,5-dihydro-3H-2,4,11,12a-tetraazabenzo[4,5]cycloocta [1,2,3-cd]inden-3-one], for which the IC50 in assay [1] was 15.3 nM; on EED (1-441)-His protein (Table 4A) it was 1.61 nM. Take `O=C1c2ncn3c(NCc4c(F)ccc5c4CCO5)ncc(c23)-c2ccc(F)cc2CN1C1CCOCC1` [Compound 65, 7-fluoro-12-(((5-fluoro-2,3-dihydrobenzofuran-4-yl)methyl)amino)-4-(tetrahydro-2H-pyran-4-yl)-4,5-dihydro-3H-2,4,11,12a-tetraazabenzo[4,5] cycloocta[1,2,3-cd]inden-3-one]: in assay [1], the IC50 is 0.69 nM. In the case of `O=C1NCc2cc(F)ccc2-c2cnc(NCc3c(F)ccc4c3CCO4)n3cnc1c23` [Compound 17, 7-fluoro-12-(((5-fluoro-2,3-dihydrobenzofuran-4-yl)methyl)amino)-4,5-dihydro-3H-2,4,11,12a-tetra azabenzo[4,5]cycloocta[1,2,3-cd]inden-3-one], the IC50 at EED (1-441)-His protein (Table 4A) is 0.66 nM.

On to `[2H]C([2H])(Nc1ncc2c3c(ncn13)C(=O)N(CC(F)(F)F)Cc1cc(C(=O)N(C)C)ccc1-2)c1c(F)ccc2c1CCO2` [E 24, 12-(((5-fluoro-2,3-dihydrobenzofuran-4-yl)methyl-d2)amino)-N,N-dimethyl-3-oxo-4-(2,2,2-trifluoroethyl)-4,5-dihydro-3H-2,4,11,12a-tetraazabenzo[4, 5]cycloocta[1,2,3-cd]indene-7-carboxamide], for which, at EED (1-441)-His protein (IC50 class, Table 4B), the IC50 lay within 10 to 100 nM. For `Cc1cc2c(cn1)-c1cnc(NCc3c(F)ccc4c3CCO4)n3cnc(c13)C(=O)N(CC(F)F)C2` [E 9, 4-(2,2-difluoroethyl)-12-(((5-fluoro-2,3-dihydro-benzofuran-4-yl)methyl)amino)-7-methyl-4,5-dihydro-3H-2,4,8,11,12a-pentaazabenzo[4,5] cycloocta[1,2,3-cd]inden-3-one], the IC50 on EED (1-441)-His protein (IC50 class, Table 4B) is < 10 nM. In the case of `O=C1c2ncn3c(NCc4c(F)ccc5c4CCO5)ncc(c23)-c2ccc(C(F)(F)F)cc2CN1CC(F)F` [Compound 81, 4-(2,2-difluoroethyl)-12-(((5-fluoro-2,3-dihydro-benzofuran-4-yl)methyl)amino)-7-(trifluoromethyl)-4,5-dihydro-3H-2,4,11,12a-tetraazabenzo[4,5] cycloocta[1,2,3-cd]inden-3-one], at EED (1-441)-His protein (Table 4A), the IC50 was determined as 1.7 nM. The same measure, in the same setting: next, `O=C1c2ncn3c(NCc4c(F)ccc5c4CCO5)ncc(c23)-c2cnc(C(F)(F)F)cc2CN1C1CC(F)(F)C1` [Compound 85, 4-(3,3-difluorocyclobutyl)-12-(((5-fluoro-2,3-dihydrobenzofuran-4-yl)methyl)amino)-7-(trifluoro-methyl)-4,5-dihydro-3H-2,4,8,11,12a-pentaazabenzo [4,5]cycloocta[1,2,3-cd]inden-3-one]: 9.82 nM. On the same count and under the same terms, next, `O=C1c2ncn3c(NCc4c(F)ccc5c4CCO5)ncc(c23)-c2ccc(C(F)(F)F)nc2CN1CC1CC1` [Compound 55, 4-(cyclopropylmethyl)-12-(((5-fluoro-2,3-dihydrobenzofuran-4-yl)methyl)amino)-7-(trifluoromethyl)-4,5-dihydro-3H-2,4,6,11,12a-pentaazabenzo[4,5] cycloocta[1,2,3-cd]inden-3-one]: 2.14 nM. In the case of `O=S1(=O)Cc2ncccc2-c2cnc(NCc3c(F)ccc4c3CCO4)n3cnc1c23` [Compound 94, 11-(((5-fluoro-2,3-dihydrobenzofuran-4-yl)methyl)amino)-4H-3-thia-2,5,10,11a-tetraazadibenzo [cd,f]azulene 3,3-dioxide], the IC50 on EED (1-441)-His protein (Table 4A) was determined as 14 nM.

In the case of `O=C1c2ncn3c(NCc4c(F)ccc5c4CCO5)ncc(c23)-c2nc(C(F)(F)F)ccc2CN1CC1COCCO1` (stereo not shown) [Compound 40, 4-((1,4-dioxan-2-yl)methyl)-12-(((5-fluoro-2,3-dihydrobenzofuran-4-yl)methyl)amino)-8-(trifluoro-methyl)-4,5-dihydro-3H-2,4,9,11,12a-pentaazabenzo [4,5]cycloocta[1,2,3-cd]inden-3-one], the IC50 on EED (1-441)-His protein (Table 4A) was found to be 10.5 nM.

Regarding `O=C1c2ncn3c(NCc4c(F)ccc5c4CCO5)ncc(c23)-c2ccc(C3CCOCC3)nc2CN1CC(F)(F)F` [E 45, 12-(((5-fluoro-2,3-dihydrobenzofuran-4-yl)methyl)amino)-7-(tetrahydro-2H-pyran-4-yl)-4-(2,2,2-trifluoroethyl)-4,5-dihydro-3H-2,4,6,11,12a-pentaazabenzo[4,5]cycloocta[1,2,3-cd]inden-3-one], the IC50 on EED (1-441)-His protein (IC50 class, Table 4B) was < 10 nM. On to `O=C1OCc2c(F)cccc2-c2cnc(NCc3c(F)ccc4c3CCO4)n3cnc1c23` [Compound 11, 6-fluoro-12-(((5-fluoro-2,3-dihydrobenzofuran-4-yl)methyl)amino)-3H,5H-4-oxa-2,11,12a-triazabenzo [4,5]cycloocta[1,2,3-cd]inden-3-one], for which, at EED (1-441)-His protein (Table 4A), the IC50 came to 0.75 nM. `O=C1c2ncn3c(NCc4c(F)ccc5c4CCO5)ncc(c23)-c2ccc(C(F)(F)F)nc2CN1CC1COCCO1` (stereo not shown) [Compound 35, 4-((1,4-dioxan-2-yl)methyl)-12-(((5-fluoro-2,3-dihydrobenzofuran-4-yl)methyl)amino)-7-(trifluoro-methyl)-4,5-dihydro-3H-2,4,6,11,12a-pentaazabenzo [4,5]cycloocta[1,2,3-cd]inden-3-one]: the IC50 at EED (1-441)-His protein (Table 4A) turned out to be 1.16 nM. For `CC(C)N1CCc2cc(C(F)(F)F)ncc2-c2cnc(NCc3c(F)ccc4c3CCO4)n3cnc(c23)C1=O` [E 31, 13-(((5-fluoro-2,3-dihydrobenzofuran-4-yl)methyl)amino)-4-isopropyl-8-(trifluoromethyl)-5,6-dihydro-2,4,9,12,13a-pentaazabenzo[4,5]cyclonona[1,2,3-cd]inden-3(4H)-one], the IC50 at EED (1-441)-His protein (IC50 class, Table 4B) was 10 to 100 nM. `Fc1ccc2c(c1CNc1ncc3c4c(ncn14)-c1nccn1Cc1nc(C(F)(F)F)ccc1-3)CCO2` [E 32, N-((5-fluoro-2,3-dihydrobenzofuran-4-yl)methyl)-8-(trifluoromethyl)-6H-2,3,5a,7,12,13a-hexaaza-benzo[4,5]cyclopenta[7,8]cycloocta[1,2,3-cd]inden-13-amine]: the IC50 at EED (1-441)-His protein (IC50 class, Table 4B) lay within 10 to 100 nM. Still for that read-out and setting: in the case of `CCc1cnc2n1Cc1nc(C)ccc1-c1cnc(NCc3c(F)ccc4c3CCO4)n3cnc-2c13` [E 38, 5-ethyl-N-((5-fluoro-2,3-dihydrobenzofuran-4-yl)methyl)-8-methyl-6H-2,3,5a,7,12,13a-hexaazabenzo [4,5]cyclopenta[7,8]cycloocta[1,2,3-cd]inden-1 3-amine] it was 10 to 100 nM. For `O=C1OCc2cc(F)ccc2-c2cnc(NCc3cccc4c3CCO4)n3cnc1c23` [Compound 9, 12-(((2,3-dihydrobenzofuran-4-yl)methyl)amino)-7-fluoro-3H,5H-4-oxa-2,11,12a-triazabenzo[4,5] cycloocta[1,2,3-cd]inden-3-one], the IC50 at EED (1-441)-His protein (Table 4A) was 0.84 nM. On the same count and under the same terms, in the case of `CN1CCC(CN2Cc3nc(C(F)(F)F)ccc3-c3cnc(NCc4c(F)ccc5c4CCO5)n4cnc(c34)C2=O)CC1` [Compound 42, 12-(((5-fluoro-2,3-dihydrobenzofuran-4-yl)methyl)amino)-4-((1-methylpiperidin-4-yl)methyl)-7-(trifluoromethyl)-4,5-dihydro-3H-2,4,6,11,12a-pentaazabenzo[4,5]cycloocta[1,2,3-cd]inden-3-one] it was 0.84 nM. Turning to `Cc1onc2c1Cc1cc(C(F)(F)F)ncc1-c1cnc(NCc3c(F)ccc4c3CCO4)n3cnc-2c13` [E 35, N-((5-fluoro-2,3-dihydrobenzofuran-4-yl)methyl)-5-methyl-8-(trifluoromethyl)-6H-4-oxa-2,3,9,12, 13a-pentaazabenzo[4,5]cyclopenta[7,8]cycloocta [1,2,3-cd]inden-13-amine], the IC50 on EED (1-441)-His protein (IC50 class, Table 4B) fell in the range of 10 to 100 nM.
